In US11702404B2, “GLP-1R modulating compounds” (priority 2019, dated 2023):
Where two headings read alike, the source gives them in different places.

Legend:
GLP-1R = GLP-1R (Homo sapiens, UniProt P43220); assay: GLP-1R activation: cAMP increase in CHO cells stably expressing GLP-1R; format: cell-based
[1] = Microsomal stability, human liver microsomes (predicted hepatic clearance); settings: predicted from in vitro microsomal stability data
[2] = cAMP increase, CHO cells stably expressing GLP-1R, 10 point dose response, 30 minutes incubation, read-out: EC50

GLP-1R, sequence (P43220 24-463): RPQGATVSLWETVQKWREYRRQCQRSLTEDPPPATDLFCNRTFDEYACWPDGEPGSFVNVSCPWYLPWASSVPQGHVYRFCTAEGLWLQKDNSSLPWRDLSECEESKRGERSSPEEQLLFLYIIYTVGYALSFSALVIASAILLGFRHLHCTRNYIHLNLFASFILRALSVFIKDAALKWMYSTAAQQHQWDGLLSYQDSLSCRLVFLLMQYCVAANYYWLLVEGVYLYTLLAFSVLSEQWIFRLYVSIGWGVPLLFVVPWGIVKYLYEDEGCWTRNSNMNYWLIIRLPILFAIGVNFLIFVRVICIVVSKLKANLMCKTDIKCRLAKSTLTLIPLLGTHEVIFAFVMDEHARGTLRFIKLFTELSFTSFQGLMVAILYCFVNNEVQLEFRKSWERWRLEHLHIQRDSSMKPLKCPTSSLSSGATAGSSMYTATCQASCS

SMILES: CS(=O)(=O)N1CC[C@@H]1Cn1c(Cc2ccc(-c3cccc(OCc4ccc(C#N)cc4F)n3)cc2F)nc2ccc(C(=O)O)cc21 [Example 888, 2-[[4-[6-[(4-cyano-2-fluoro-phenyl)methoxy]-2-pyridyl]-2-fluoro-phenyl]methyl]-3-[[(2R)-1-methylsulfonylazetidin-2-yl]methyl]benzimidazole-5-carboxylic acid]
- EC50 (GLP-1R; read-out: EC50): 6.01 nM
- Predicted Hepatic Clearance (Pred. Cl.) [1]: 5.83 mL/min/kg

SMILES: N#Cc1ccc(COc2cccc(-c3cc(F)c(Cc4nc5c(F)cc(C(=O)O)cc5n4CCOC(F)F)cc3F)n2)c(F)c1 [Example 892]
- EC50 (GLP-1R; [2]): 0.78 nM
- Predicted Hepatic Clearance (Pred. Cl.) [1]: 5.5 mL/min/kg

SMILES: CC(C)(C)OCCn1c(Cc2cc(F)c(-c3cccc(OCc4ccc(C#N)cc4F)n3)cc2F)nc2ccc(C(=O)O)cc21 [Example 893, 1-(2-(tert-butoxy)ethyl)-2-(4-(6-((4-cyano-2-fluorobenzyl)oxy)pyridin-2-yl)-2,5-difluorobenzyl)-1H-benzo[d]imidazole-6-carboxylic acid]
- EC50 (GLP-1R; EC50 (nM)): 35.3 nM
- Predicted Hepatic Clearance (Pred. Cl.) [1]: 1.83 mL/min/kg

SMILES: N#Cc1ccc(COc2cccc(-c3cc(F)c(Cc4nc5c(F)cc(C(=O)O)cc5n4CCOC4CC4)cc3F)n2)c(F)c1 [Example 894]
- EC50 (GLP-1R; [2]): 2.68 nM
- Predicted Hepatic Clearance (Pred. Cl.) [1]: 4.17 mL/min/kg

SMILES: N#Cc1ccc(COc2cccc(-c3cc(F)c(Cc4nc5ccc(C(=O)O)cc5n4CCNc4ccccc4)cc3F)n2)c(F)c1 [Example 895]
- EC50 (GLP-1R; read-out: EC50): 79.9 nM
- Predicted Hepatic Clearance (Pred. Cl.) [1]: 8 mL/min/kg

SMILES: N#Cc1ccc(COc2cccc(-c3cc(F)c(Cc4nc5c(F)cc(C(=O)O)cc5n4C[C@@H]4CCO4)cc3F)n2)c(F)c1 [Example 896]
- EC50 (GLP-1R; [2]): 0.03 nM
- Predicted Hepatic Clearance (Pred. Cl.) [1]: 4.5 mL/min/kg

SMILES: N#Cc1ccc(COc2nccc(-c3cc(F)c(Cc4nc5ccc(C(=O)O)cc5n4CCOC4CC4)cc3F)n2)c(F)c1 [Example 897]
- EC50 (GLP-1R; [2]): 4.1 nM
- Predicted Hepatic Clearance (Pred. Cl.) [1]: 2.17 mL/min/kg

SMILES: N#Cc1ccc(COc2cccc(-c3cc(F)c(Cc4nc5ccc(C(=O)O)cc5n4CC45CC(CO4)C5)cc3F)n2)c(F)c1 [Example 898, 1-((2-oxabicyclo[2.1.1]hexan-1-yl)methyl)-2-(4-(6-((4-cyano-2-fluorobenzyl)oxy)pyridin-2-yl)-2,5-difluorobenzyl)-1H-benzo[d]imidazole-6-carboxylic acid]
- EC50 (GLP-1R; [2]): 1.5 nM
- Predicted Hepatic Clearance (Pred. Cl.) [1]: 9.67 mL/min/kg

SMILES: N#Cc1ccc(COc2ccc(F)c(-c3cc(F)c(Cc4nc5ccc(C(=O)O)cc5n4CCOC4CC4)cc3F)n2)c(F)c1 [Example 899]
- EC50 (GLP-1R; [2]): 2.26 nM
- Predicted Hepatic Clearance (Pred. Cl.) [1]: 4 mL/min/kg

SMILES: N#Cc1ccc(COc2nc(-c3cc(F)c(Cc4nc5ccc(C(=O)O)cc5n4CCOC4CC4)cc3F)ccc2F)c(F)c1 [Example 900]
- EC50 (GLP-1R; [2]): 1.26 nM
- Predicted Hepatic Clearance (Pred. Cl.) [1]: 1.83 mL/min/kg

SMILES: COCCn1c(Cc2cc(F)c(-c3cccc(OCc4ccc(C5=CCNCC5)cc4F)n3)cc2F)nc2ccc(C(=O)O)cc21 [Example 901, 2-(2,5-difluoro-4-(6-((2-fluoro-4-(1,2,3,6-tetrahydropyridin-4-yl)benzyl)oxy)pyridin-2-yl)benzyl)-1-(2-methoxyethyl)-1H-benzo[d]imidazole-6-carboxylic acid]
- EC50 (GLP-1R; [2]): 160 nM
- Predicted Hepatic Clearance (Pred. Cl.) [1]: 4.5 mL/min/kg

SMILES: COCCn1c(Cc2cc(F)c(-c3cccc(OCc4ccc(C5=CCN(C(C)=O)CC5)cc4F)n3)cc2F)nc2ccc(C(=O)O)cc21 [Example 902, 2-(4-(6-((4-(1-acetyl-1,2,3,6-tetrahydropyridin-4-yl)-2-fluorobenzyl)oxy)pyridin-2-yl)-2,5-difluorobenzyl)-1-(2-methoxyethyl)-1H-benzo[d]imidazole-6-carboxylic acid]
- EC50 (GLP-1R; [2]): 6.19 nM
- Predicted Hepatic Clearance (Pred. Cl.) [1]: 8.67 mL/min/kg

SMILES: COCCn1c(Cc2ccc(-c3cccc(OCc4ccc(C#N)cc4F)n3)c3c2COC3)nc2ccc(C(=O)O)cc21 [Example 903, 2-((7-(6-((4-cyano-2-fluorobenzyl)oxy)pyridin-2-yl)-1,3-dihydroisobenzofuran-4-yl)methyl)-1-(2-methoxyethyl)-1H-benzo[d]imidazole-6-carboxylic acid]
- EC50 (GLP-1R; [2]): 107 nM
- Predicted Hepatic Clearance (Pred. Cl.) [1]: 1.83 mL/min/kg

SMILES: CC(C)(C)OC(=O)N(CCn1c(Cc2cc(F)c(-c3cccc(OCc4ccc(C#N)cc4F)n3)cc2F)nc2ccc(C(=O)O)cc21)C1CC1 [Example 907, 1-(2-((tert-butoxycarbonyl)(cyclopropyl)amino)ethyl)-2-(4-(6-((4-cyano-2-fluorobenzyl)oxy)pyridin-2-yl)-2,5-difluorobenzyl)-1H-benzo[d]imidazole-6-carboxylic acid]
- EC50 (GLP-1R; read-out: EC50): 9960 nM
- Predicted Hepatic Clearance (Pred. Cl.) [1]: 8.5 mL/min/kg

SMILES: COCCn1c(Cc2cc(F)c(-c3cccc(OCc4cccc(-c5ccccn5)c4)n3)cc2F)nc2ccc(C(=O)O)cc21 [Example 908]
- EC50 (GLP-1R; [2]): 6.68 nM
- Predicted Hepatic Clearance (Pred. Cl.) [1]: 5.17 mL/min/kg

SMILES: COCCn1c(Cc2cc(F)c(-c3cccc(OCc4cccc(-c5ncccn5)c4)n3)cc2F)nc2ccc(C(=O)O)cc21 [Example 909]
- EC50 (GLP-1R; [2]): 2.25 nM
- Predicted Hepatic Clearance (Pred. Cl.) [1]: 3.67 mL/min/kg

SMILES: COCCn1c(Cc2cc(F)c(-c3cccc(OCc4ccc(-c5ccccn5)cc4F)n3)cc2F)nc2ccc(C(=O)O)cc21 [Example 910]
- EC50 (GLP-1R; [2]): 33.4 nM
- Predicted Hepatic Clearance (Pred. Cl.) [1]: 2.83 mL/min/kg

SMILES: COCCn1c(Cc2cc(F)c(-c3cccc(OCc4ccc(-c5ncccn5)cc4F)n3)cc2F)nc2ccc(C(=O)O)cc21 [Example 911, 2-[[2,5-difluoro-4-[6-[(2-fluoro-4-pyrimidin-2-yl-phenyl)methoxy]-2-pyridyl]phenyl]methyl]-3-(2-methoxyethyl)benzimidazole-5-carboxylic acid]
- EC50 (GLP-1R; [2]): 55.6 nM
- Predicted Hepatic Clearance (Pred. Cl.) [1]: 1.83 mL/min/kg

SMILES: COCCn1c(Cc2cc(F)c(-c3cccc(OCc4ccc(-c5cc[nH]c(=O)c5)cc4F)n3)cc2F)nc2ccc(C(=O)O)cc21 [Example 912]
- EC50 (GLP-1R; [2]): 15.3 nM
- Predicted Hepatic Clearance (Pred. Cl.) [1]: 1.83 mL/min/kg

SMILES: COCCn1c(Cc2cc(F)c(-c3cccc(OCc4cccc(-c5cnn(C)c5)c4)n3)cc2F)nc2ccc(C(=O)O)cc21 [Example 913]
- EC50 (GLP-1R; [2]): 112 nM
- Predicted Hepatic Clearance (Pred. Cl.) [1]: 3.83 mL/min/kg

SMILES: COCCn1c(Cc2cc(F)c(-c3cccc(OCc4cccc(-c5ccn(C)n5)c4)n3)cc2F)nc2ccc(C(=O)O)cc21 [Example 914]
- EC50 (GLP-1R; [2]): 51.5 nM
- Predicted Hepatic Clearance (Pred. Cl.) [1]: 6 mL/min/kg

SMILES: COCCn1c(Cc2cc(F)c(-c3cccc(OCc4ccc(-c5cnn(C)c5)cc4F)n3)cc2F)nc2ccc(C(=O)O)cc21 [Example 915, 2-[[2,5-difluoro-4-[6-[[2-fluoro-4-(1-methylpyrazol-4-yl)phenyl]methoxy]-2-pyridyl]phenyl]methyl]-3-(2-methoxyethyl)benzimidazole-5-carboxylic acid]
- EC50 (GLP-1R; [2]): 2.26 nM
- Predicted Hepatic Clearance (Pred. Cl.) [1]: 4 mL/min/kg

SMILES: COCCn1c(Cc2cc(F)c(-c3cccc(OCc4ccc(-c5cnccn5)cc4F)n3)cc2F)nc2ccc(C(=O)O)cc21 [Example 916]
- EC50 (GLP-1R; [2]): 2.18 nM
- Predicted Hepatic Clearance (Pred. Cl.) [1]: 1.83 mL/min/kg

SMILES: COCCn1c(Cc2cc(F)c(-c3cccc(OCc4ccc(-c5ccn(C)n5)cc4F)n3)cc2F)nc2ccc(C(=O)O)cc21 [Example 917]
- EC50 (GLP-1R; [2]): 56.7 nM
- Predicted Hepatic Clearance (Pred. Cl.) [1]: 1.83 mL/min/kg

SMILES: CO[C@H]1CN(C(C)=O)C[C@H]1n1c(Cc2cc(F)c(-c3cccc(OCc4ccc(C#N)cc4F)n3)cc2F)nc2ccc(C(=O)O)cc21 [Example 918, 3-[(3R,4S)-1-acetyl-4-methoxy-pyrrolidin-3-yl]-2-[[4-[6-[(4-cyano-2-fluoro-phenyl)methoxy]-2-pyridyl]-2,5-difluoro-phenyl]methyl]benzimidazole-5-carboxylic acid]
- EC50 (GLP-1R; read-out: EC50): 24.9 nM
- Predicted Hepatic Clearance (Pred. Cl.) [1]: 4.83 mL/min/kg

SMILES: CO[C@@H]1CN(C(C)=O)C[C@@H]1n1c(Cc2cc(F)c(-c3cccc(OCc4ccc(C#N)cc4F)n3)cc2F)nc2ccc(C(=O)O)cc21 [Example 919]
- EC50 (GLP-1R; read-out: EC50): 840 nM
- Predicted Hepatic Clearance (Pred. Cl.) [1]: 4.17 mL/min/kg

SMILES: CO[C@@H]1CN(C(C)=O)C[C@H]1n1c(Cc2cc(F)c(-c3cccc(OCc4ccc(C#N)cc4F)n3)cc2F)nc2ccc(C(=O)O)cc21 [Example 920]
- EC50 (GLP-1R; read-out: EC50): 58.5 nM
- Predicted Hepatic Clearance (Pred. Cl.) [1]: 4.67 mL/min/kg

SMILES: Cc1cc2nc(Cc3cc(F)c(-c4cccc(OCc5ccc(C#N)cc5F)n4)cc3F)n(C[C@@H]3CCO3)c2cc1C(=O)O [Example 921]
- EC50 (GLP-1R; [2]): 0.33 nM
- Predicted Hepatic Clearance (Pred. Cl.) [1]: 2.83 mL/min/kg

SMILES: CC(=O)N1CC[C@@H]1Cn1c(Cc2cc(F)c(-c3cccc(OCc4ccc(C#N)cc4F)n3)cc2F)nc2ccc(C(=O)O)cc21 [Example 925, (R)-1-((1-acetylazetidin-2-yl)methyl)-2-(4-(6-((4-cyano-2-fluorobenzyl)oxy)pyridin-2-yl)-2,5-difluorobenzyl)-1H-benzo[d]imidazole-6-carboxylic acid]
- EC50 (GLP-1R; read-out: EC50): 3.63 nM
- Predicted Hepatic Clearance (Pred. Cl.) [1]: 5.83 mL/min/kg

SMILES: COCCn1c(Cc2cc(F)c(-c3cccc(OCc4ccc(C#N)cc4F)n3)cc2F)nc2cc(C)c(C(=O)O)cc21 [Example 926, 2-(4-(6-((4-cyano-2-fluorobenzyl)oxy)pyridin-2-yl)-2,5-difluorobenzyl)-1-(2-methoxyethyl)-5-methyl-1H-benzo[d]imidazole-6-carboxylic acid]
- EC50 (GLP-1R; [2]): 11.8 nM
- Predicted Hepatic Clearance (Pred. Cl.) [1]: 1.83 mL/min/kg
